Data on 20 compounds can be found in US7998982B2, “Amide derivatives as TRPV1 antagonists” (Abbott Laboratories, priority 2007, dated 2011).

The target of the experiment is T1, human TRPV1 receptor (Homo sapiens, UniProt Q8NER1).
T1 construct: expressed in transfected cells
T1 sequence (Q8NER1 whole entry): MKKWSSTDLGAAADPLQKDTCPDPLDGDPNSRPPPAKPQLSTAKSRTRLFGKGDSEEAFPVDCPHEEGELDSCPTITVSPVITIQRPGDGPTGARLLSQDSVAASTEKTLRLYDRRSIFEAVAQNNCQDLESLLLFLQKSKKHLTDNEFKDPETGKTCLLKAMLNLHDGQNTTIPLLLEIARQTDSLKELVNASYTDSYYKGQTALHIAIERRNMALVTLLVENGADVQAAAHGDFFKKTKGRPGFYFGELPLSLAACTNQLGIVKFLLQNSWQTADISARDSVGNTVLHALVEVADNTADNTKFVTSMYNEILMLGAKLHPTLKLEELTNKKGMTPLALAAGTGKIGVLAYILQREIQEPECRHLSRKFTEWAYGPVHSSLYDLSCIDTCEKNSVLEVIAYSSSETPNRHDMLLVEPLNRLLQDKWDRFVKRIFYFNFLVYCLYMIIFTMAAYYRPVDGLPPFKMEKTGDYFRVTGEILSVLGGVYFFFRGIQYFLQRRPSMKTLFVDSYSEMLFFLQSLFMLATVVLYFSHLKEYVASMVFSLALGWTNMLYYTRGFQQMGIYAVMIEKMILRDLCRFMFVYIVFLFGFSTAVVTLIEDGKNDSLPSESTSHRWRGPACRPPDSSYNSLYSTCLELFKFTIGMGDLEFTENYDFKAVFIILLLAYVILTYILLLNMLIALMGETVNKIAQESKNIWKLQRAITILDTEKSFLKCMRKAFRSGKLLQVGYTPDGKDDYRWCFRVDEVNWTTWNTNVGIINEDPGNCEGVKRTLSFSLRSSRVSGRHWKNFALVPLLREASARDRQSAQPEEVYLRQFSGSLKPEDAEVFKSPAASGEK
Nature of the experiment: Ca2+ influx assay (FLIPR, Fluo-4 AM) of capsaicin-evoked response in cells expressing recombinant TRPV1. Format: cell-based. The note with it: 1321N1 human astrocytoma cells expressing hTRPV1; inhibition of 0.05 μM capsaicin-induced [Ca2+]i increase. As to the method: Dulbecco's modified Eagle medium (D-MEM) (with 4.5 mg/mL glucose) and fetal bovine serum were obtained from Hyclone Laboratories, Inc. (Logan, Utah). Dulbecco's phosphate-buffered saline (D-PBS) (with 1 mg/mL glucose and 3.6 mg/l Na pyruvate, without phenol red), L-glutamine, hygromycin B, and Lipofectamine® were obtained from Life Technologies (Grand Island, N.Y.). G418 sulfate was obtained from Calbiochem-Novabiochem Corp. (San Diego, Calif.). Capsaicin (8-methyl-N-vanillyl-6-nonenamide) was obtained from Sigma-Aldrich, Co. (St. Louis, Mo.). Fluo-4 AM (N-[4-[6-[(acetyloxy)methoxy]-2,7-difluoro-3-oxo-3H-xanthen-9-yl]-2-[2-[2-[bis[2-[(acetyloxy)methoxy]-2-oxyethyl]amino]-5-methylphenoxy]ethoxy]phenyl]-N-[2-[(acetyloxy)methoxy]-2-oxyethyl]-glycine, (acetyloxy)methyl ester) was purchased from Molecular Probes (Eugene, Oreg.).
The cDNAs for the human TRPV1 receptor were isolated by reverse transcriptase-polymerase chain reaction (RT-PCR) from human small intestine poly A+RNA supplied by Clontech (Palo Alto, Calif.) using primers designed surrounding the initiation and termination codons identical to the published sequences (Hayes et al. Pain 2000, 88, 205-215). The resulting cDNA PCR products were subcloned into pCIneo mammalian expression vector (Promega) and fully sequenced using fluorescent dye-terminator reagents (Prism, Perkin-Elmer Applied Biosystems Division) and a Perkin-Elmer Applied Biosystems Model 373 DNA sequencer or Model 310 genetic analyzer. Expression plasmids encoding the hTRPV1 cDNA were transfected individually into 1321N1 human astrocytoma cells using Lipofectamine®. Forty-eight hours after transfection, the neomycin-resistant cells were selected with growth medium containing 800 μg/mL Geneticin (Gibco BRL). Surviving individual colonies were isolated and screened for TRPV1 receptor activity. Cells expressing recombinant homomeric TRPV1 receptors were maintained at 37° C. in D-MEM containing 4 mM L-glutamine, 300 μg/mL G418 (Cal-biochem) and 10% fetal bovine serum under a humidified 5% CO2 atmosphere.
The functional activity of compounds at the TRPV1 receptor was determined with a Ca^2+ influx assay and measurement of intracellular Ca^2+ levels ([Ca^2+]i). All compounds were tested over an 11-point half-log concentration range. Compound solutions were prepared in D-PBS (4× final concentration), and diluted serially across 96-well v-bottom tissue culture plates using a Biomek 2000 robotic automation workstation (Beckman-Coulter, Inc., Fullerton, Calif.). A 0.2 μM solution of the TRPV1 agonist capsaicin was also prepared in D-PBS. The fluorescent Ca^2+ chelating dye Fluo-4 AM was used as an indicator of the relative levels of [Ca^2+]i in a 96-well format using a Fluorescence Imaging Plate Reader (FLIPR) (Molecular Devices, Sunnyvale, Calif.). Cells were grown to confluency in 96-well black-walled tissue culture plates. Then, prior to the assay, the cells were loaded with 100 μL per well of Fluo-4 AM (2 μM, in D-PBS) for 1-2 hours at 23° C. Washing of the cells was performed to remove extracellular Fluo-4 AM (2×1 mL D-PBS per well), and afterward, the cells were placed in the reading chamber of the FLIPR instrument. 50 μL of the compound solutions were added to the cells at the 10 second time mark of the experimental run. Then, after a 3-minute time delay, 50 μL of the capsaicin solution was added at the, 190 second time mark (0.05 μM final concentration)(final volume=200 μL) to challenge the TRPV1 receptor. Time length of the experimental run was 240 seconds. Fluorescence readings were made at 1 to 5 second intervals over the course of the experimental run. The peak increase in relative fluorescence units (minus baseline) was calculated from the 190 second time mark to the end of the experimental run, and expressed as a percentage of the 0.05 μM capsaicin (control) response. […]
Usually IC50 stands for the concentration at which inhibition is half-maximal. Turning to `C[C@H]1CN(c2ncccc2C(F)(F)F)CC=C1C(=O)Nc1ccc(C(C)(C)C#N)cc1` (single isomer, unassigned) [Example 14], the IC50 was 710 nM.

In the case of `Cc1cccnc1N1CC=C(C(=O)Nc2ccc(S(=O)(=O)C(F)(F)F)cc2)[C@H](C)C1` [Example 3, (3S)-3,3′-dimethyl-N-{4-[(trifluoromethyl)sulfonyl]phenyl}-3,6-dihydro-2H-1,2′-bipyridine-4-carboxamide], the IC50 was determined as 20 nM.

`C[C@H]1CN(c2ncccc2Cl)CC=C1C(=O)Nc1ccc(S(=O)(=O)C(F)(F)F)cc1` [Example 5, (3R)-3′-chloro-3-methyl-N-{4-[(trifluoromethyl)sulfonyl]phenyl}-3,6-dihydro-2H-1,2′-bipyridine-4-carboxamide]: the IC50 is 230 nM.

Turning to `Cc1cccnc1N1CC=C(C(=O)Nc2ccc(C(F)(F)F)cc2)[C@H](C)C1` [Example 8, (3S)-3,3′-dimethyl-N-[4-(trifluoromethyl)phenyl]-3,6-dihydro-2H-1,2′-bipyridine-4-carboxamide], the IC50 turned out to be 63 nM.

For the compound `Cc1cccnc1N1CC=C(C(=O)Nc2ccc(S(=O)(=O)C(F)(F)F)cc2)[C@@H](C)C1` [Example 6, (3R)-3,3′-dimethyl-N-{4-[(trifluoromethyl)sulfonyl]phenyl}-3,6-dihydro-2H-1,2′-bipyridine-4-carboxamide], the IC50 came out at 760 nM.

For `C[C@H]1CN(c2ncccc2C(F)(F)F)CC=C1C(=O)Nc1ccc(C(F)(F)F)cc1` (single isomer, unassigned) [Example 10], the IC50 was found to be 480 nM.

With `Cc1cccnc1N1CC=C(C(=O)Nc2ccc(C(C)(C)C#N)cc2)[C@@H](C)C1` [Example 18, (3R)—N-(4-(2-cyanopropan-2-yl)phenyl)-3-methyl-1-(3-methylpyridin-2-yl)-1,2,3,6-tetrahydropyridine-4-carboxamide], the IC50 stood at 1300 nM.

With `Cc1cccnc1N1CC=C(C(=O)Nc2ccc(C(C)(C)C)cc2)[C@@H](C)C1` (single isomer, unassigned) [Example 16], the IC50 was 620 nM.

Regarding `Cc1cccnc1N1CC=C(C(=O)Nc2ccc(C(F)(F)F)cc2)[C@@H](C)C1` (single isomer, unassigned) [Example 9], the IC50 was 380 nM.

For the compound `C[C@@H]1CN(c2ncccc2C(F)(F)F)CC=C1C(=O)Nc1ccc(C(F)(F)F)cc1` [Example 4, (3S)-3-methyl-3′-(trifluoromethyl)-N-[4-(trifluoromethyl)phenyl]-3,6-dihydro-2H-1,2′-bipyridine-4-carboxamide], the IC50 came out at 26 nM.

On to `Cc1cccnc1N1CC=C(C(=O)Nc2ccc(C(F)(F)F)nc2)[C@H](C)C1` (single isomer, unassigned) [Example 19], for which the IC50 worked out at 190 nM.

With `Cc1cccnc1N1CC=C(C(=O)Nc2ccc(C(F)(F)F)nc2)[C@@H](C)C1` (single isomer, unassigned) [Example 20], the IC50 is 3100 nM.

In the case of `C[C@@H]1CN(c2ncccc2Cl)CC=C1C(=O)Nc1ccc(C(F)(F)F)cc1` [Example 2, (3S)-3′-chloro-3-methyl-N-[4-(trifluoromethyl)phenyl]-3,6-dihydro-2H-1,2′-bipyridine-4-carboxamide], the IC50 was 20 nM.

On to `C[C@@H]1CN(c2ncccc2Cl)CC=C1C(=O)Nc1ccc(S(=O)(=O)C(F)(F)F)cc1` [Example 1, (3S)-3′-chloro-3-methyl-N-{4-[(trifluoromethyl)sulfonyl]phenyl}-3,6-dihydro-2H-1,2′-bipyridine-4-carboxamide], for which the IC50 is 28 nM.

For `Cc1cccnc1N1CC=C(C(=O)Nc2ccc(C(C)(C)C#N)cc2)[C@H](C)C1` (single isomer, unassigned) [Example 17], the IC50 stood at 13 nM.

Consider `C[C@H]1CN(c2ncccc2Cl)CC=C1C(=O)Nc1ccc(C(F)(F)F)cc1` [Example 7, (3R)-3′-chloro-3-methyl-N-[4-(trifluoromethyl)phenyl]-3,6-dihydro-2H-1,2′-bipyridine-4-carboxamide], for which the IC50 is 84 nM.

As for `C[C@@H]1CN(c2ncccc2C(F)(F)F)CC=C1C(=O)Nc1ccc(S(=O)(=O)C(F)(F)F)cc1` (single isomer, unassigned) [Example 11], the IC50 was 40 nM.

On to `C[C@@H]1CN(c2ncccc2C(F)(F)F)CC=C1C(=O)Nc1ccc(C(C)(C)C#N)cc1` (single isomer, unassigned) [Example 13], for which the IC50 came to 89 nM.

For `C[C@H]1CN(c2ncccc2C(F)(F)F)CC=C1C(=O)Nc1ccc(S(=O)(=O)C(F)(F)F)cc1` (single isomer, unassigned) [Example 12], the IC50 amounted to 640 nM.

Consider `Cc1cccnc1N1CC=C(C(=O)Nc2ccc(C(C)(C)C)cc2)[C@H](C)C1` (single isomer, unassigned) [Example 15], for which the IC50 was determined as 15 nM.
